Test systems include ACHN renal; OVCAR-3 ovarian; KM12 colon; CAKI-1 renal; SF-268 CNS; TK-10 renal; OVCAR-4 ovarian; NCI-H226 lung; LOX IMVI melanoma; SK-MEL-28 melanoma.
Holding throughout (assay): inhibition of tumour cell growth, NCI panel, 48 h

Values joined by “and” are separate entries in the source; they are usually repeats but may differ in a detail not shown here. Equal values may be shown once.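 Protocol summary: plate cells (96-well), add compound at 5 concentrations, incubate 48 h, interpolate endpoints linearly. The concentration for 50% growth inhibition is given as GI50. The concentration for full growth arrest is given as TGI.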

As to `O=c1[nH]c(=O)n(C2CC(O)C(CO)O2)cc1Br` (stereo not drawn), the TGI in the assay on ACHN renal, with OVCAR-3 ovarian, in the assay on KM12 colon, in the assay with CAKI-1 renal, with SF-268 CNS and in the assay on TK-10 renal was over 100 µM each time. Moreover, the TGI in the assay on OVCAR-4 ovarian, in the assay with NCI-H226 lung, in the assay with LOX IMVI melanoma and in the assay on SK-MEL-28 melanoma was over 100 µM each time.

Regarding `NC(=O)/N=C/c1c(O)c2ccccc2oc1=O`, the TGI with ACHN renal, in the assay on OVCAR-3 ovarian, with KM12 colon, with SF-268 CNS, in the assay with TK-10 renal and with OVCAR-4 ovarian was over 100 µM in each case. Besides, the TGI in the assay on NCI-H226 lung, with LOX IMVI melanoma and in the assay on SK-MEL-28 melanoma was over 100 µM each time.

For `Cn1c(=O)c2[nH]c(SC/C(=N/O)c3ccc(Br)cc3)nc2n(C)c1=O`, in the assay with TK-10 renal, the GI50 is 1.92 µM and the TGI worked out at 3.41 µM. Moreover, in the assay on LOX IMVI melanoma, the GI50 was 3.12 µM and the TGI is over 100 µM.

With `O=S(O)c1cc(Cl)c(O)c(Cl)c1`, the TGI in the assay with ACHN renal, in the assay on OVCAR-3 ovarian, in the assay with KM12 colon, in the assay on SF-268 CNS, with TK-10 renal and in the assay on OVCAR-4 ovarian was over 100 µM in each case. Further, the TGI in the assay on LOX IMVI melanoma and in the assay with SK-MEL-28 melanoma was over 100 µM in each case.

Consider `O=C1C(=C([O-])c2ccccc2)C(=O)c2ccccc21.O=C1C(=C([O-])c2ccccc2)C(=O)c2ccccc21.[Ni+2]`, for which the GI50 was 84.6 µM in the assay with KM12 colon; 33.9 µM with CAKI-1 renal; over 100 µM in the assay with TK-10 renal; 61.6 µM with OVCAR-4 ovarian; 4.68 µM in the assay on NCI-H226 lung; 34.6 µM with LOX IMVI melanoma. Besides, the GI50 in the assay with SK-MEL-28 melanoma was 62.2 µM. Also, the TGI with KM12 colon was over 100 µM; in the assay with CAKI-1 renal, over 100 µM; in the assay on TK-10 renal it was over 100 µM; with OVCAR-4 ovarian it was over 100 µM; in the assay on NCI-H226 lung, 63.5 µM; in the assay on LOX IMVI melanoma it was over 100 µM. In the assay on SK-MEL-28 melanoma, this compound registered a TGI of over 100 µM.

`COc1ccc2c3/c(=C\c4ccc(N(C)C)cc4)c4ccccc4n3[n+](C)c2c1`: the GI50 in the assay on ACHN renal is 0.404 µM; in the assay with OVCAR-3 ovarian, 0.0358 µM; with KM12 colon, 0.255 µM; with CAKI-1 renal it was 0.723 µM; in the assay on SF-268 CNS it was 0.437 µM; in the assay with TK-10 renal, 0.274 µM. The GI50 in the assay on OVCAR-4 ovarian was 0.987 µM; in the assay on NCI-H226 lung it was 0.244 µM; in the assay on LOX IMVI melanoma, 0.094 µM; in the assay with SK-MEL-28 melanoma it was 0.173 µM. In addition, the TGI came out at 0.369 µM in the assay with OVCAR-3 ovarian; 1.24 µM in the assay on KM12 colon; 2.51 µM in the assay with CAKI-1 renal; 3.03 µM in the assay on SF-268 CNS; 1.32 µM in the assay on TK-10 renal; 6.46 µM with OVCAR-4 ovarian. For the same compound, the figures for the TGI in the assay on NCI-H226 lung, in the assay with LOX IMVI melanoma and in the assay on SK-MEL-28 melanoma were 1.68 µM, over 100 µM and 2.27 µM, respectively.

As to `CC1OC(O[C@@H]2C=C3CC[C@@H]4[C@H](CC[C@]5(C)[C@@H](c6ccc(=O)oc6)CC[C@]45O)[C@@]3(C)CC2)C(O)C(OC2OC(CO)C(O)C(O)C2O)C1O` (stereo partly drawn), the TGI in the assay on ACHN renal was 0.00301 µM; in the assay on OVCAR-3 ovarian, 0.0253 µM; in the assay on KM12 colon it was 0.182 µM and 0.039 µM; in the assay on CAKI-1 renal it was 0.0015 µM; in the assay with SF-268 CNS, 0.00983 µM; with TK-10 renal it was 0.016 µM. Besides, the TGI was 0.00798 µM with OVCAR-4 ovarian; 0.0549 µM and 0.0732 µM in the assay with NCI-H226 lung; 0.0867 µM with SK-MEL-28 melanoma. For the same compound, the results for the GI50 in the assay with OVCAR-3 ovarian, with KM12 colon and in the assay on NCI-H226 lung were 0.000162 µM, 0.000437 µM and 0.0101 µM, respectively.

As for `COC(=O)c1c(O)ccc2c1c1c(n2Cc2cccc(C)c2)C(=O)c2ccccc2C1`, the TGI with ACHN renal was over 75 µM; with OVCAR-3 ovarian, over 75 µM; with CAKI-1 renal, 46.3 µM; in the assay on SF-268 CNS, over 75 µM; in the assay with TK-10 renal it was over 75 µM; with OVCAR-4 ovarian, 25.3 µM. Also, the figures for the TGI in the assay with NCI-H226 lung, in the assay on LOX IMVI melanoma and in the assay on SK-MEL-28 melanoma were over 75 µM, 67.1 µM and 0.71 µM, respectively.

For the compound `COc1cc(O)c(Cc2ccccc2O)c(O)c1C(=O)CCc1ccccc1`, the TGI in the assay on OVCAR-3 ovarian is 16.1 µM; with KM12 colon it was 25.3 µM; in the assay on CAKI-1 renal it was 13 µM; in the assay on SF-268 CNS it was 33.5 µM; with OVCAR-4 ovarian, 18.5 µM; in the assay with NCI-H226 lung, 32 µM. Besides, the TGI came to 22.9 µM in the assay on LOX IMVI melanoma and 27.2 µM in the assay on SK-MEL-28 melanoma.
